Experiments:
rat = settings: oral; cited from earlier work
[1] = test system: high molecular weight DNA in tissues of Mytilus edulis, Faxonius virilis and Alitta virens; assay: Qualitative DNA fragment length distribution by agarose gel electrophoresis, several taxa; settings: M. edulis and F. virilis, 6 months, room temperature
Description: (§1) Live specimens of M. edulis and F. virilis were stored on ice and live A. virens were stored at 4° C. prior to dissection. Gill, abdominal muscle and body tissue samples were collected immediately after euthanasia from specimens of M. edulis, F. virilis, and A. virens, respectively. […] DNA was extracted from the ninth subsample, hereafter referred to as fresh tissue, immediately after dissection without preservation. […] Seven specimens of M. edulis, seven specimens of F. virilis and ten specimens of A. virens were assigned to each time interval for a total of 35 M. edulis, 35 F. virilis and 50 A. virens.

[2] = test system: high molecular weight DNA in gill tissue of Mytilus edulis; assay: Preservation of high molecular weight DNA in stored tissue, TapeStation % R and nY; settings: M. edulis, 3 months, room temperature
Description: (§2) To evaluate the contributions of the three components of DESS to DNA preservation in tissues, DNA quality was compared among extracts of tissues from three aquatic invertebrate taxa preserved for various time intervals in DESS or one of six DESS-variant solutions in a full factorial design. Each of these six variants contained either one of the three components of DESS individually or one of the three possible pairwise combinations of two DESS components. […] All solutions were prepared at room temperature (22-24° C.) using distilled deionized water as the diluent.
as §1
(§3) After the assigned storage interval, each tissue sample was removed from its storage solution and reweighed. […] To control for changes in tissue weight during storage, a correction ratio was calculated by dividing the tissue weight prior to storage by the post storage weight. Each extract subsample weight was then multiplied by the correction ratio to estimate the fresh tissue weight equivalent for that subsample. These values were then used to calculate normalized yield (see statistical analysis). DNA was extracted from tissues using the DNeasy Blood and Tissue Kit (Qiagen; Hilden, Germany) following the manufacturers recommended protocol with tissues digested overnight and DNA eluted by adding two sequential 50 μl volumes of Buffer AE for a total elution volume of 100 μl. […]

[3] = test system: high molecular weight DNA in body tissue of Alitta virens; assay: as above; settings: A. virens, 3 months, room temperature
Description: as §2, §1, §3

[4] = test system: high molecular weight DNA in tissues of Alitta virens; assay: pH study: tissue stored 1 year in EDTA solutions at pH 8.0, 9.0, 10.0; settings: A. virens, one year of storage, room temperature
Source text: The tissues of 5 species of aquatic animals were stored in the resulting solutions at room temperature for periods ranging from 6 weeks to 12 months.

[5] = test system: high molecular weight DNA in tissues of Mytilus edulis, Faxonius virilis and Alitta virens; assay: Preservation of high molecular weight DNA in stored tissue, TapeStation % R and nY, statements covering several taxa; settings: M. edulis and F. virilis, 3 months
Description: as §2
Live specimens of M. edulis and F. virilis were stored on ice and live A. virens were stored at 4° C. prior to dissection. Gill, abdominal muscle and body tissue samples were collected immediately after euthanasia from specimens of M. edulis, F. virilis, and A. virens, respectively. […] DNA was extracted from the ninth subsample, hereafter referred to as fresh tissue, immediately after dissection without preservation. […]
After the assigned storage interval, each tissue sample was removed from its storage solution and reweighed. […] To control for changes in tissue weight during storage, a correction ratio was calculated by dividing the tissue weight prior to storage by the post storage weight. […]

## [Cl-].[Na+] [NaCl, sodium chloride]
rat
  LD50: 3,000 mg/kg

## CCO [EtOH, ethanol]
[1]
  high molecular weight DNA visualized by agarose gel electrophoresis: evident
[2]
  percent high molecular weight DNA recovered (% R), average: 15.37%
[3]
  normalized high molecular weight DNA yield (nY): performed significantly better than tissues preserved in DE, DSS, D and E
  percent high molecular weight DNA recovered (% R): performed significantly better than tissues preserved in DE, DSS, D and E
[4]
  high molecular weight DNA yielded: little or no high molecular weight DNA
[5]
  normalized high molecular weight DNA yield (nY): equal to or significantly greater than fresh tissues
  percent high molecular weight DNA recovered (% R): equal to or significantly greater than fresh tissues

— patent US12480151B2, “DNA preservation in biological specimens using metal chelators” (Northeastern University, priority 2020, dated 2025)
